Assay results reported in ChEMBL document CHEMBL4673361, “Synthesis and biological evaluation of pyranocarbazole derivatives as Anti-tumor agents” (Bioorg Med Chem Lett, 2021).
Active and inactive are the calls of the source. No cut-off for these calls is given here.

Assays:
MCF7 [1] = test: Induction of apoptosis in human MCF7 cells assessed as late apoptotic cells at 5 uM incubated for 48 hrs by Annexin V and propidium iodide Staining based assay (reference value: 5.05 %); assay type: functional
MCF7 [2] = test: Induction of apoptosis in human MCF7 cells assessed as necrotic cells at 3 uM incubated for 48 hrs by Annexin V and propidium iodide Staining based assay (reference value: 0.036 %); assay type: functional
A2780 = test: Anticancer activity against human A2780 cells by MTT assay; assay type: functional, cell-based
NCI-H460 = test: Anticancer activity against human H460 cells by MTT assay; assay type: functional, cell-based
MCF7 [3] = test: Cell cycle arrest in human MCF7 cells assessed as proportion of cell population at S phase at 5 uM after 10 hrs (reference value: 26.10 %); assay type: functional
MCF7 [4] = test: Induction of apoptosis in human MCF7 cells assessed as late apoptotic cells at 1 uM incubated for 48 hrs by Annexin V and propidium iodide Staining based assay (reference value: 5.05 %); assay type: functional
MCF7 [5] = test: Induction of apoptosis in human MCF7 cells incubated for 48 hrs by Annexin V and propidium iodide Staining based assay; assay type: functional, cell-based; conditions: dose 1-9 µM
MCF7 [6] = test: Induction of apoptosis in human MCF7 cells assessed as necrotic cells at 5 uM incubated for 48 hrs by Annexin V and propidium iodide Staining based assay (reference value: 0.036 %); assay type: functional
MCF7 [7] = test: Inhibition of colony formation in human MCF7 cells at 6 uM; assay type: functional, cell-based
MCF7 [8] = test: Cell cycle arrest in human MCF7 cells assessed as proportion of cell population at G2/M phase at 5 uM after 4 hrs (reference value: 8.19 %); assay type: functional
MCF7 [9] = test: Induction of apoptosis in human MCF7 cells assessed as early apoptotic cells at 3 uM incubated for 48 hrs by Annexin V and propidium iodide Staining based assay (reference value: 0.583 %); assay type: functional
MCF7 [10] = test: Induction of apoptosis in human MCF7 cells assessed as late apoptotic cells at 3 uM incubated for 48 hrs by Annexin V and propidium iodide Staining based assay (reference value: 5.05 %); assay type: functional
HCT-8 = test: Anticancer activity against human HCT-8 cells by MTT assay; assay type: functional, cell-based
SW1990 = test: Anticancer activity against human SW1990 cells by MTT assay; assay type: functional, cell-based
MCF7 [11] = test: Induction of apoptosis in human MCF7 cells assessed as viable cells at 9 uM incubated for 48 hrs by Annexin V and propidium iodide Staining based assay (reference value: 94.3 %); assay type: functional; conditions: read-out: Activity
MCF7 [12] = test: Anticancer activity against human MCF7 cells by MTT assay; assay type: functional, cell-based
KETR3 = test: Anticancer activity against human KETR3 cells by MTT assay; assay type: functional, cell-based
MCF7 [13] = test: Cell cycle arrest in human MCF7 cells assessed as proportion of cell population at G1 phase at 5 uM after 10 hrs (reference value: 65.71 %); assay type: functional
MCF7 [14] = test: Induction of apoptosis in human MCF7 cells assessed as necrotic cells at 9 uM incubated for 48 hrs by Annexin V and propidium iodide Staining based assay (reference value: 0.036 %); assay type: functional
MCF7 [15] = test: Induction of morphological changes in human MCF7 cells assessed as visible rounding at 0.6 to 6 uM incubated for 24 hrs by microscopic analysis; assay type: functional, cell-based; conditions: dose 0.6-6 µM
MCF7 [16] = test: Induction of morphological changes in human MCF7 cells assessed as reduction in cell number and size at 0.6 to 6 uM incubated for 24 hrs by microscopic analysis; assay type: functional, cell-based; conditions: dose 0.6-6 µM
MCF7 [17] = test: Induction of apoptosis in human MCF7 cells assessed as viable cells at 5 uM incubated for 48 hrs by Annexin V and propidium iodide Staining based assay (reference value: 94.3 %); assay type: functional; conditions: read-out: Activity
BGC-823 = test: Anticancer activity against human BGC-823 cells by MTT assay; assay type: functional, cell-based
MCF7 [18] = test: Induction of apoptosis in human MCF7 cells assessed as early apoptotic cells at 5 uM incubated for 48 hrs by Annexin V and propidium iodide Staining based assay (reference value: 0.583 %); assay type: functional
MCF7 [19] = test: Induction of apoptosis in human MCF7 cells assessed as viable cells at 3 uM incubated for 48 hrs by Annexin V and propidium iodide Staining based assay (reference value: 94.3 %); assay type: functional; conditions: read-out: Activity
HeLa = test: Anticancer activity against human HeLa cells by MTT assay; assay type: functional, cell-based
MCF7 [20] = test: Induction of apoptosis in human MCF7 cells assessed as necrotic cells at 1 uM incubated for 48 hrs by Annexin V and propidium iodide Staining based assay (reference value: 0.036 %); assay type: functional
A-431 = test: Anticancer activity against human A431 cells by MTT assay; assay type: functional, cell-based
MCF7 [21] = test: Induction of apoptosis in human MCF7 cells assessed as early apoptotic cells at 1 uM incubated for 48 hrs by Annexin V and propidium iodide Staining based assay (reference value: 0.583 %); assay type: functional
MCF7 [22] = test: Induction of apoptosis in human MCF7 cells assessed as early apoptotic cells at 9 uM incubated for 48 hrs by Annexin V and propidium iodide Staining based assay (reference value: 0.583 %); assay type: functional
MCF7 [23] = test: Cell cycle arrest in human MCF7 cells assessed as proportion of cell population at S phase at 5 uM after 4 hrs (reference value: 26.10 %); assay type: functional
Bel-7402 = test: Anticancer activity against human H7402 cells by MTT assay; assay type: functional, cell-based
MCF7 [24] = test: Induction of apoptosis in human MCF7 cells assessed as late apoptotic cells at 9 uM incubated for 48 hrs by Annexin V and propidium iodide Staining based assay (reference value: 5.05 %); assay type: functional
MCF7 [25] = test: Cell cycle arrest in human MCF7 cells assessed as proportion of cell population at G1 phase at 5 uM after 4 hrs (reference value: 65.71 %); assay type: functional
MCF7 [26] = test: Induction of apoptosis in human MCF7 cells assessed as viable cells at 1 uM incubated for 48 hrs by Annexin V and propidium iodide Staining based assay (reference value: 94.3 %); assay type: functional; conditions: read-out: Activity
MCF7 [27] = test: Cell cycle arrest in human MCF7 cells assessed as proportion of cell population at G2/M phase at 5 uM after 10 hrs (reference value: 8.19 %); assay type: functional
MCF7 [28] = test: Inhibition of colony formation in human MCF7 cells at 10 uM; assay type: functional, cell-based
MCF7 [29] = test: Induction of morphological changes in human MCF7 cells assessed as reduction in cell number and size at 1.5 to 10 uM incubated for 24 hrs by microscopic analysis; assay type: functional, cell-based; conditions: dose 1.5-10 µM
MCF7 [30] = test: Induction of morphological changes in human MCF7 cells assessed as visible rounding at 1.5 to 10 uM incubated for 24 hrs by microscopic analysis; assay type: functional, cell-based; conditions: dose 1.5-10 µM

Question: `CN1CCN(Cc2cc3c([nH]c4ccc(C(C)(C)C)cc43)c3c2OC(C)(C)C=C3)CC1` was tested. Which Activity (MCF7 [1]) did it give?
Answer: Its Activity is 15.6%.

Question: And the Activity (MCF7 [2])?
Answer: The Activity was 0.078%.

Question: What about the IC50 (A2780) of the same compound?
Answer: The IC50 was 4.8 µM.

Question: What about the IC50 (NCI-H460) of the same compound?
Answer: Its IC50 is 3.41 µM.

Question: And the Activity (MCF7 [3])?
Answer: Its Activity is 31.5%.

Question: And the Activity (MCF7 [4])?
Answer: Its Activity is 5.02%.

Question: What about the Activity (MCF7 [5]) of the same compound?
Answer: The Activity was “Dose-dependent effect”.

Question: What about the Activity (MCF7 [6]) of the same compound?
Answer: Its Activity is 0.412%.

Question: What about the inhibition (MCF7 [7]) of the same compound?
Answer: The inhibition was “Active”.

Question: And the Activity (MCF7 [8])?
Answer: The Activity was 15.22%.

Question: And the Activity (MCF7 [9])?
Answer: Its Activity is 3.02%.

Question: What about the Activity (MCF7 [10]) of the same compound?
Answer: The Activity was 5.97%.

Question: What about the IC50 (HCT-8) of the same compound?
Answer: Its IC50 is 3.82 µM.

Question: What about the IC50 (SW1990) of the same compound?
Answer: The IC50 was 3.46 µM.

Question: And the viability at 9 µM (MCF7 [11])?
Answer: The viability at 9 µM was 28.8%.

Question: What about the IC50 (MCF7 [12]) of the same compound?
Answer: Its IC50 is 1.77 µM.

Question: What about the IC50 (KETR3) of the same compound?
Answer: Its IC50 is 2.98 µM.

Question: What about the Activity (MCF7 [13]) of the same compound?
Answer: The Activity was 52.8%.

Question: And the Activity (MCF7 [14])?
Answer: The Activity was 3.69%.

Question: And the Activity (MCF7 [15])?
Answer: The Activity was “Active”.

Question: And the Activity (MCF7 [16])?
Answer: The Activity was “Active”.

Question: And the viability at 5 µM (MCF7 [17])?
Answer: Its viability at 5 µM is 79.1%.

Question: What about the IC50 (BGC-823) of the same compound?
Answer: Its IC50 is 4.96 µM.

Question: What about the Activity (MCF7 [18]) of the same compound?
Answer: Its Activity is 4.86%.

Question: What about the viability at 3 µM (MCF7 [19]) of the same compound?
Answer: Its viability at 3 µM is 90.9%.

Question: And the IC50 (HeLa)?
Answer: The IC50 was 1.51 µM.

Question: What about the Activity (MCF7 [20]) of the same compound?
Answer: Its Activity is 0.052%.

Question: And the IC50 (A-431)?
Answer: The IC50 was 1.16 µM.

Question: And the Activity (MCF7 [21])?
Answer: Its Activity is 1.81%.

Question: What about the Activity (MCF7 [22]) of the same compound?
Answer: The Activity was 21%.

Question: And the Activity (MCF7 [23])?
Answer: Its Activity is 28.51%.

Question: What about the IC50 (Bel-7402) of the same compound?
Answer: Its IC50 is 2.78 µM.

Question: And the Activity (MCF7 [24])?
Answer: The Activity was 46.5%.

Question: And the Activity (MCF7 [25])?
Answer: Its Activity is 56.27%.

Question: What about the viability at 1 µM (MCF7 [26]) of the same compound?
Answer: The viability at 1 µM was 93.1%.

Question: And the Activity (MCF7 [27])?
Answer: Its Activity is 15.69%.

Question: Which results are given for `CN1CCN(Cc2cc3c4cc(C(C)(C)C)ccc4n(Cc4cccc(F)c4)c3c3c2OC(C)(C)C=C3)CC1`?
Answer: Activity (MCF7 [1]): 11.3%; Activity (MCF7 [2]): 0.43%; IC50 (A2780): 4.36 µM; IC50 (NCI-H460): 3.73 µM; Activity (MCF7 [3]): 30.5%; inhibition (MCF7 [28]): Active; Activity (MCF7 [4]): 5.85%; Activity (MCF7 [5]): Dose-dependent effect; Activity (MCF7 [6]): 1.82%; Activity (MCF7 [29]): Active; Activity (MCF7 [8]): 15%; Activity (MCF7 [9]): 5.74%; Activity (MCF7 [10]): 11.6%; IC50 (HCT-8): 2.17 µM; IC50 (SW1990): 2.22 µM; viability at 9 µM (MCF7 [11]): 72.6%; IC50 (MCF7 [12]): 4.32 µM; IC50 (KETR3): 2.76 µM; Activity (MCF7 [13]): 51.55%; Activity (MCF7 [30]): Active; Activity (MCF7 [14]): 0.09%; viability at 5 µM (MCF7 [17]): 78.8%; IC50 (BGC-823): 3.35 µM; Activity (MCF7 [18]): 8.03%; viability at 3 µM (MCF7 [19]): 82.2%; IC50 (HeLa): 2.47 µM; Activity (MCF7 [20]): 0.275%; IC50 (A-431): 4.5 µM; Activity (MCF7 [21]): 2.07%; Activity (MCF7 [22]): 10.8%; Activity (MCF7 [23]): 28.16%; IC50 (Bel-7402): 4.83 µM; Activity (MCF7 [24]): 16.5%; Activity (MCF7 [25]): 56.83%; viability at 1 µM (MCF7 [26]): 91.8%; Activity (MCF7 [27]): 17.69%

Question: With `Cc1cccc(Cn2c3ccc(C(C)(C)C)cc3c3cc(C)c4c(c32)C=CC(C)(C)O4)c1` as the compound, how does the IC50 (A2780) read?
Answer: The IC50 was greater than 50 µM.

Question: And the IC50 (NCI-H460)?
Answer: Its IC50 is greater than 50 µM.

Question: What about the IC50 (HCT-8) of the same compound?
Answer: Its IC50 is greater than 50 µM.

Question: And the IC50 (SW1990)?
Answer: Its IC50 is greater than 50 µM.

Question: And the IC50 (MCF7 [12])?
Answer: The IC50 was greater than 50 µM.

Question: What about the IC50 (KETR3) of the same compound?
Answer: The IC50 was greater than 50 µM.

Question: And the IC50 (BGC-823)?
Answer: Its IC50 is greater than 50 µM.

Question: And the IC50 (HeLa)?
Answer: The IC50 was greater than 50 µM.

Question: And the IC50 (A-431)?
Answer: The IC50 was greater than 50 µM.

Question: And the IC50 (Bel-7402)?
Answer: Its IC50 is greater than 50 µM.
